Results taken from patent US11760773B2, “Small molecule drug conjugates of gemcitabine monophosphate” (MaveriX Oncology, Inc., priority 2018, dated 2023).
Counter-ions that a name gives are not always drawn. Like-named read-outs stand apart in the source and are kept apart here.

Experiments:
UT-SCC-10 = assay: Tumor cell proliferation (alamarBlue) cytotoxicity assay, UT-SCC-10; type: cell-based, human
Description: (§1) A tumor cell proliferation assay was used to determine cytotoxicity IC50 values for the phosphate prodrug Compounds 1-9, the parent non-phosphorylated SMDC parent compounds, and the effector (gemcitabine) across eight primary early-passage human head and neck squamous cell carcinoma cell lines including UT-SCC-5, UT-SCC-8, UT-SCC-9, UT-SCC-10, UT-SCC-14, UT-SCC-16A, UT-SCC-16B, and UT-SCC-24A.
(§2) UTSCC cells were seeded at 4000 cells/100 I/well on 96-well black clear-bottom tissue culture plate. Cells were incubated at 37° C. and 5% CO2 overnight to allow them to recover and re-attach. The next day cells were treated with the test compound (0-100 μM) for 72 hours. After treatment, cell proliferation was measured by Fluorescent quantitation of alamarBlue reagent. The alamarBlue assay incorporates a fluorometric/colorimetric growth indicator based on detection of metabolic activity. Specifically, resazurin, the active ingredient of alamarBlue reagent, is blue in color and virtually non-fluorescent. Upon entering cells, resazurin is reduced to resorufin, a compound that is red in color and highly fluorescent.
(§3) Continued cell growth maintains a reduced environment, therefore increasing the overall fluorescence and color of the media surrounding cells. The fluorescence intensity of alamarBlue reagent was directly proportional to cell number. To perform the alamarBlue assay, 10 I of alamarBlue reagent was added to each well and the plate was incubated at 37° C. for an additional 2 hour. Fluorescence intensity was measured at an excitation of 530 nm and an emission of 590 nm using a BioTek Synergy™ 2 microplate reader.
(§4) Cell proliferation assays in triplicate were performed at each concentration. The fluorescent intensity data were analyzed using the computer software, Graphpad Prism. In the absence of the compound, the fluorescent intensity (Ft) in each data set was defined as 100%. In the absence of cells, the fluorescent intensity (Fb) in each data set was defined as 0%. The percent cell in the presence of each compound was calculated according to the following equation: % cell=(F−Fb)/(Ft−Fb), where F=the fluorescent intensity in the presence of the compound, Fb=the fluorescent intensity in the absence of cells, and Ft=the fluorescent intensity in the absence of the compound. The values of % cell versus a series of compound concentrations were then plotted using non-linear regression analysis of Sigmoidal dose-response curve generated with the equation Y=B+(T−B)/1+10^((Log EC50-X)×Hill Slope) where Y=percent cell, B=minimum percent cell, T=maximum percent cell, X=logarithm of compound and Hill Slope=slope factor or Hill coefficient. The IC50 value was determined by the concentration causing a half-maximal percent activity.

[1] = Comparative plasma PK of Compound 1 versus Int 1-4 in male CD-1 mice (study b); type: in vivo; conditions: male, CD-1, mouse, iv; for AUC(0-inf): read-out: AUC0-inf; for MRT inf: read-out: MRT0-inf; for MRT last: read-out: MRT0-last; for Vd: read-out: Vdss
Description: Objectives: to compare the plasma pharmacokinetics and stability of Compound 1 with its non-phosphorylated SMDC analog (Int 1-4) and in plasma following a single intravenous infusion administration of Compound 1 at 11.6 mg/kg and 23.2 mg/kg with Int 1-4 (formulation F1 & F2) at 10.0 mg/kg in male CD-1 mice
PK measurements: compare PK parameters C0, CL, Vdss, Cmax, tmax, t1/2, AUC(0-t), AUC(0-inf), MRT(0-t), MRT(0-inf) for Compound 1 and Int 1-4

Solubility / formulation = type: physicochemical; conditions: water; read-out: soluble in water
[2] = Mouse plasma stability (Compound 1); type: in vitro ADME
UT-SCC-14 = assay: Tumor cell proliferation (alamarBlue) cytotoxicity assay, UT-SCC-14; type: cell-based, human
Description: as §1, §2, §3, §4

UT-SCC-9 = assay: Tumor cell proliferation (alamarBlue) cytotoxicity assay, UT-SCC-9; type: cell-based, human
Description: as §1, §2, §3, §4

UT-SCC-16A = assay: Tumor cell proliferation (alamarBlue) cytotoxicity assay, UT-SCC-16A; type: cell-based, human
Description: as §1, §2, §3, §4

[3] = Compound 1 and gemcitabine plasma PK in the male cynomolgus monkey (study h); type: in vivo
Description: Objectives: to compare the plasma pharmacokinetics and stability of the Compound 1 with Int 1-4 and in plasma following a single intravenous infusion administration of Compound 1 at 5 mg/kg and 10 mg/kg with equimolar gemcitabine at 2.28 mg/kg in male cynomolgous monkeys.
PK measurements: compare PK parameters C0, CL, Vdss, Cmax, tmax, t1/2, AUC(0-t), AUC(0-inf), MRT(0-t), MRT(0-inf) for Compound 1 and Int 1-4 with gemcitabine.

UT-SCC-8 = assay: Tumor cell proliferation (alamarBlue) cytotoxicity assay, UT-SCC-8; type: cell-based, human
Description: as §1, §2, §3, §4

[4] = tested on: primary head and neck squamous cell carcinoma cell lines; assay: Cytotoxicity, average over the eight UT-SCC cell lines; type: cell-based, human
Description: as §1
UTSCC cells were seeded at 4000 cells/100 I/well on 96-well black clear-bottom tissue culture plate. Cells were incubated at 37° C. and 5% CO2 overnight to allow them to recover and re-attach. The next day cells were treated with the test compound (0-100 μM) for 72 hours. After treatment, cell proliferation was measured by Fluorescent quantitation of alamarBlue reagent. […]
Continued cell growth maintains a reduced environment, therefore increasing the overall fluorescence and color of the media surrounding cells. The fluorescence intensity of alamarBlue reagent was directly proportional to cell number. […] Fluorescence intensity was measured at an excitation of 530 nm and an emission of 590 nm using a BioTek Synergy™ 2 microplate reader.
Cell proliferation assays in triplicate were performed at each concentration. The fluorescent intensity data were analyzed using the computer software, Graphpad Prism. […] The IC50 value was determined by the concentration causing a half-maximal percent activity.

UT-SCC-16B = assay: Tumor cell proliferation (alamarBlue) cytotoxicity assay, UT-SCC-16B; type: cell-based, human
Description: as §1, §2, §3, §4

UT-SCC-5 = assay: Tumor cell proliferation (alamarBlue) cytotoxicity assay, UT-SCC-5; type: cell-based, human
Description: as §1, §2, §3, §4

UT-SCC-24A = assay: Tumor cell proliferation (alamarBlue) cytotoxicity assay, UT-SCC-24A; type: cell-based, human
Description: as §1, §2, §3, §4

[5] = 11.6 mg/kg, after iv Compound 1 11.6 mg/kg
[6] = 23.2 mg/kg, after iv Compound 1 23.2 mg/kg
[7] = Homo sapiens, 72 hours treatment
[8] = plasma, after iv Compound 1 5 mg/kg

For `COc1cc(OC)c2oc(COC(=O)Nc3ccn([C@@H]4O[C@H](COP(=O)(O)O)[C@@H](O)C4(F)F)c(=O)n3)cc2c1` [Compound 1, ((2R,3R,5R)-5-(4-((((5,7-dimethoxybenzofuran-2-yl)methoxy)carbonyl)-amino)-2-oxopyrimidin-1(2H)-yl)-4,4-difluoro-3-hydroxytetrahydrofuran-2-yl)methyl hydrogen phosphate triethyl ammonium salt], the IC50 (UT-SCC-10; Homo sapiens, UT-SCC-10, 72 hours treatment) was 14 nM, the “Cytotoxicity IC50 ratio Compound 1/Int 1-4” value (UT-SCC-10; UT-SCC-10) was 1.6 and the “Cytotoxicity IC50 ratio Compound 1/gemcitabine” value (UT-SCC-10; UT-SCC-10) was 1.6. For the same molecule, the AUC(0-t) [1, 5] was 202 ng·h/mL, the C0 [1, 5] was 21900 ng/mL and the clearance [1, 5] was 1970 mL/min/kg. It also gave a half-life [1, 5] of 52.9 s, an AUC(0-inf) [1, 5] of 202 ng·h/mL and an MRT inf [1, 5] of 39.2 s. The MRT last [1, 5] was 38.9 s, the Vd [1, 5] was 1.41 L/kg and the AUC(0-t) [1, 6] was 103 ng·h/mL. It also gave a C0 [1, 6] of 2330 ng/mL, a clearance [1, 6] of 5190 mL/min/kg and a half-life [1, 6] of 131 s. For the same molecule, the AUC(0-inf) [1, 6] was 105 ng·h/mL, the MRT inf [1, 6] was 164 s and the MRT last [1, 6] was 153 s. The Vd [1, 6] was 12 L/kg, the solubility (Solubility / formulation) was over 300 mg/mL and the “stability in mouse plasma” value [2] was “stable”. The “Slope Mean ± SE” value ([2]; 3 μM, 37° C.) was 0.00413 ± 0.000752, the IC50 (UT-SCC-14; Homo sapiens, UT-SCC-14, 72 hours treatment) was 13 nM and the “Cytotoxicity IC50 ratio Compound 1/Int 1-4” value (UT-SCC-14; UT-SCC-14) was 1.0. For the same molecule, the “Cytotoxicity IC50 ratio Compound 1/gemcitabine” value (UT-SCC-14; UT-SCC-14) was 2.2, the IC50 (UT-SCC-9; Homo sapiens, UT-SCC-9, 72 hours treatment) was 53 nM and the “Cytotoxicity IC50 ratio Compound 1/Int 1-4” value (UT-SCC-9; UT-SCC-9) was 1.4. The “Cytotoxicity IC50 ratio Compound 1/gemcitabine” value (UT-SCC-9; UT-SCC-9) was 1.5, the “Cytotoxicity IC50 ratio Compound 1/Int 1-4” value (UT-SCC-16A) was 0.5 and the “Cytotoxicity IC50 ratio Compound 1/gemcitabine” value (UT-SCC-16A) was 1.2. The IC50 (UT-SCC-16A; [7]) was 73 nM, the “VDss fold lower than Int 1-4” value [3] was 10 fold and the AUC(0-t) [3, 8] was 1830 ng·h/mL. It also gave a C0 [3, 8] of 139000 ng/mL, a clearance [3, 8] of 46.5 mL/min/kg and a half-life [3, 8] of 36 s. It also gave an MRT inf ([3]; plasma, after iv Compound 1 5 mg/kg, read-out: MRT0-inf) of 36 s, an MRT last ([3]; plasma, after iv Compound 1 5 mg/kg, read-out: MRT0-last) of 36 s and a Vd ([3]; plasma, after iv Compound 1 5 mg/kg, read-out: Vdss) of 0.0357 L/kg. For the same molecule, the IC50 (UT-SCC-8; Homo sapiens, UT-SCC-8, 72 hours treatment) was 23 nM, the “Cytotoxicity IC50 ratio Compound 1/Int 1-4” value (UT-SCC-8; UT-SCC-8) was 0.7 and the “Cytotoxicity IC50 ratio Compound 1/gemcitabine” value (UT-SCC-8; UT-SCC-8) was 1.0. The “average ratio of cytotoxicity IC50 values Compound 1/Int 1-4” value [4] was about 1, the “average ratio of cytotoxicity IC50 values Compound 1/gemcitabine” value [4] was about 1.6 and the “Cytotoxicity IC50 ratio Compound 1/Int 1-4” value (UT-SCC-16B) was 0.8. For the same molecule, the “Cytotoxicity IC50 ratio Compound 1/gemcitabine” value (UT-SCC-16B) was 1.3, the IC50 (UT-SCC-16B; [7]) was 130 nM and the IC50 (UT-SCC-5; Homo sapiens, UT-SCC-5, 72 hours treatment) was 24 nM. For the same molecule, the “Cytotoxicity IC50 ratio Compound 1/Int 1-4” value (UT-SCC-5; UT-SCC-5) was 1.5, the “Cytotoxicity IC50 ratio Compound 1/gemcitabine” value (UT-SCC-5; UT-SCC-5) was 2.7 and the “Cytotoxicity IC50 ratio Compound 1/Int 1-4” value (UT-SCC-24A) was 0.9. The “Cytotoxicity IC50 ratio Compound 1/gemcitabine” value (UT-SCC-24A) was 1.3 and the IC50 (UT-SCC-24A; [7]) was 18 nM.
